Test results published in patent US20230201174A1, “COMBINATION OF FINERENONE AND A SGLT2 INHIBITOR FOR THE TREATMENT AND/OR PREVENTION OF CARDIOVASCULAR AND/OR RENAL DISEASES” (BAYER AKTIENGESELLSCHAFT, priority 2020, published 2023).

What was measured:
[1] = test system: Wistar rats with activated renin-angiotensin-aldosterone system; assay: In vivo assay for detecting natriuretic activity in conscious rats with activated RAAS; set-up: species or system rat; settings: for Urinary Glucose concentration / Urinary K+ concentration / Urinary Na+ concentration / Urinary Volume/ body weight: Table 4, 24 h urine, mean ± SEM
Procedure: Wistar rats (ca. 250-500 g body weight) were kept with free access to feed (Altromin) and drinking water. […] This sodium-reduced feed causes an activation of the RAAS in the animals during the 3 days run-in phase and therefore mimics a neuroendocrine activation which is characteristic for cardiorenal diseases. […] At the start of the test, the substance to be tested was administered by means of gavage in a volume of 2-3 ml/kg of body weight of a suitable solvent PEG400). Control animals received only solvent (‘S’ or solvent in table 2 below). Controls and substance tests were carried out in parallel on the same day. Control groups and substance-dose groups each consisted of 6 to 10 animals. During the test, the urine excreted by the animals was continuously collected in a receiver on the base of the cage.
In this comparison, eight different administrations were performed (cf. groups A to H):
Group A received the solvent (PEG400) only. This group serves as control group.
Groups B, C and D received three increasing dosages of empagliflozin (SGLT2 inhibitor) only. It serves to detect the effects of the monotherapy with SGLT2 inhibitor.
Group E received a finerenone only. It serves to detect the effect of the monotherapy with finerenone.
Groups F, G and H received finerenone and the three doses of SGLT2 inhibitor in combination, respectively. It serves to detect the effect of the combined therapy with finerenone and empagliflozin (SGLT2 inhibitor) (combination according to the invention).
After the treatment, the urinary volume, urinary glucose, urinary sodium and potassium concentrations were measured.

[2] = tended to increase on day 1 after administration; cited from earlier work
[3] = Table 4 study, monotherapy 10 mg/kg
[4] = Table 4 study, monotherapy: canagliflozin 1 and 3 mg/kg, finerenone 1 mg/kg

## Cc1ccc([C@@H]2O[C@H](CO)[C@@H](O)[C@H](O)[C@H]2O)cc1Cc1ccc(-c2ccc(F)cc2)s1 [canagliflozin, (2S,3R,4R,5S,6R)-2-(3-{[5-(4-fluorophenyl)thiophen-2-yl]methyl}-4-methylphenyl)-6-(hydroxymethyl)oxane-3,4,5-triol]
[1]; monotherapy 1 mg/kg oral
  Urinary Glucose concentration: 2.76 ± 0.36 mmol
  Urinary K+ concentration: 1.86 ± 0.11 mmol
  Urinary Na+ concentration: 0.15 ± 0.03 mmol
  Urinary Volume/ body weight: 0.03108 ± 0.00317 L/kg
[1]; monotherapy 3 mg/kg oral
  Urinary Glucose concentration: 6.94 ± 0.44 mmol
  Urinary K+ concentration: 2.40 ± 0.17 mmol
  Urinary Na+ concentration: 0.21 ± 0.05 mmol
  Urinary Volume/ body weight: 0.04049 ± 0.00243 L/kg
[1]; monotherapy 10 mg/kg oral
  Urinary Glucose concentration: 9.99 ± 0.46 mmol
  Urinary K+ concentration: 2.36 ± 0.15 mmol
  Urinary Na+ concentration: 0.41 ± 0.08 mmol
  Urinary Volume/ body weight: 0.05583 ± 0.00352 L/kg
[1]; [3]
  influence on urinary sodium, in words: increase
  influence on urinary volume, in words: increase
[1]; [4]
  influence on urinary potassium, in words: no influence
  influence on urinary sodium, in words: no influence
  influence on urinary volume, in words: no influence
[1]; Table 4 study, monotherapy: canagliflozin all doses (1, 3, 10 mg/kg), finerenone 1 mg/kg
  influence on urinary glucose, in words: strong increase
[2]
  urinary Na+ excretion, in words: returned to baseline from day 2 to 5
